From ChEMBL document CHEMBL1201862, “PubChem BioAssay data set” (2004) come the findings set out here.

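Exposure lasted 48 hours, with cells grown in 96-well plates and compounds tested at five concentrations. GI50 marks 50% less growth.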 Calls of active or inactive are those of the source. No stated cut-off is given here; in the data, active = GI50 up to about 1.1 µM and inactive = higher. Some results are limits rather than exact numbers.

Test systems include HL-60; CAKI-1; MCF7; OVCAR-4; M14; KM12; HOP-92; RPMI-8226; RXF 393; BT-549; Malme-3M; HT-29; PC-3; OVCAR-3; HCC 2998; UO-31; UACC-257; U-251; IGROV-1; SK-OV-3.
What all share (assay): NCI anticancer screen, dose series, 48 h

With `CC1(C)C(=O)N(O)C(C)(C)N1N=O`, the GI50 with HL-60, in the experiment on CAKI-1, in the experiment with MCF7, with OVCAR-4, in the experiment on M14 and in the experiment on KM12 was > 10 µM (inactive) in each case. The GI50 was > 10 µM (inactive) in the experiment on HOP-92; 1.89 µM (inactive) in the experiment with RPMI-8226; > 10 µM (inactive) with RXF 393; > 10 µM (inactive) in the experiment on BT-549; > 10 µM (inactive) with Malme-3M; > 10 µM (inactive) with HT-29. The GI50 in the experiment with PC-3, in the experiment with OVCAR-3, with HCC 2998, with UO-31, in the experiment with UACC-257 and in the experiment with U-251 was > 10 µM (inactive) each time.
For the molecule `Cc1nc2ccc(F)cc2c(Cl)c1CCCl`, the GI50 with HL-60 was 16.1 µM (inactive); in the experiment with IGROV-1, 59.8 µM (inactive); with MCF7 it was 43.5 µM (inactive); in the experiment on OVCAR-4, 83.8 µM (inactive); in the experiment with KM12, 28.1 µM (inactive); with HOP-92, 36 µM (inactive). For the same molecule, the GI50 in the experiment on RPMI-8226 was 42.8 µM (inactive); in the experiment on RXF 393, 21.7 µM (inactive); in the experiment with BT-549 it was 36.9 µM (inactive); in the experiment on Malme-3M it was 31.6 µM (inactive); in the experiment with HT-29, 25 µM (inactive); in the experiment with PC-3, 44.4 µM (inactive). In addition, the GI50 in the experiment on OVCAR-3 is 42.3 µM (inactive); with HCC 2998, 33.4 µM (inactive); in the experiment on UO-31 it was 73.1 µM (inactive); in the experiment on UACC-257, 39 µM (inactive); with U-251, 30.4 µM (inactive).
Consider `O=C(N/N=C\c1cccc2c([N+](=O)[O-])cccc12)Nc1ccccc1`, for which the GI50 in the experiment on HL-60 is 14.7 µM (inactive); with IGROV-1 it was 19 µM (inactive); with CAKI-1, 12.5 µM (inactive); in the experiment with MCF7, 8.83 µM (inactive); with OVCAR-4, 11.6 µM (inactive); with M14 it was 12.9 µM (inactive). Further, the GI50 with KM12 is 14.9 µM (inactive); in the experiment with HOP-92 it was 12.3 µM (inactive); in the experiment on RPMI-8226 it was 14.7 µM (inactive); in the experiment with RXF 393, 7.53 µM (inactive); in the experiment with BT-549 it was 8.95 µM (inactive); in the experiment with Malme-3M, 14.1 µM (inactive). The GI50 is 14.8 µM (inactive) with HT-29; 14.8 µM (inactive) in the experiment with PC-3; 14.2 µM (inactive) with OVCAR-3; 15.1 µM (inactive) in the experiment with HCC 2998; 13.2 µM (inactive) with UO-31; 19.5 µM (inactive) with UACC-257. In addition, in the experiment with U-251, the GI50 is 7.08 µM (inactive).
In the case of `COC(=O)[C@@H](NC(=O)N(CCC#N)CCCN(C(=O)N[C@H](Cc1ccccc1)C(=O)OC)c1ccccc1)C(C)C`, the GI50 in the experiment on IGROV-1 is 59.3 µM (inactive); in the experiment on CAKI-1, > 100 µM (inactive); in the experiment on MCF7, > 100 µM (inactive); in the experiment with OVCAR-4, 50.4 µM (inactive); in the experiment with M14, > 100 µM (inactive); with KM12, > 100 µM (inactive). Besides, the GI50 is 29.9 µM (inactive) with HOP-92; 25.1 µM (inactive) in the experiment on RPMI-8226; 95.9 µM (inactive) in the experiment with RXF 393; > 100 µM (inactive) in the experiment with BT-549; 28.1 µM (inactive) in the experiment with Malme-3M; 81.8 µM (inactive) in the experiment with PC-3. For the same molecule, the GI50 is 57.8 µM (inactive) in the experiment with OVCAR-3; 47.3 µM (inactive) with HCC 2998; 97.5 µM (inactive) with UO-31; 29.2 µM (inactive) with UACC-257; > 100 µM (inactive) in the experiment with U-251; > 100 µM (inactive) in the experiment with SK-OV-3.
`CCCCC(=O)Oc1ccc2c(C)cc(=O)oc2c1`: the GI50 in the experiment with HL-60, in the experiment with IGROV-1, in the experiment with CAKI-1, with MCF7, with OVCAR-4 and in the experiment with M14 was > 100 µM (inactive) in each case. The GI50 with KM12 is > 100 µM (inactive); with HOP-92, 26.2 µM (inactive); in the experiment on RPMI-8226, > 100 µM (inactive); in the experiment with RXF 393, > 100 µM (inactive); with BT-549, > 100 µM (inactive); with Malme-3M, > 100 µM (inactive). The GI50 with HT-29 was > 100 µM (inactive); with PC-3, > 100 µM (inactive); in the experiment on OVCAR-3, > 100 µM (inactive); with HCC 2998 it was 88.9 µM (inactive); in the experiment with UO-31, > 100 µM (inactive); in the experiment on UACC-257, > 100 µM (inactive). Further, the GI50 in the experiment with U-251 is > 100 µM (inactive).
On to `O=C1N/N=C\Nc2ccc(cc2)S(=O)(=O)c2ccc(cc2)/N=C\NNC1=O`, for which the GI50 in the experiment on HL-60 was 10.1 µM (inactive); with IGROV-1, > 100 µM (inactive); in the experiment on CAKI-1 it was > 100 µM (inactive); in the experiment with MCF7, > 100 µM (inactive); in the experiment with OVCAR-4, > 100 µM (inactive); in the experiment with M14, > 100 µM (inactive). Moreover, the GI50 was > 100 µM (inactive) in the experiment on KM12; > 100 µM (inactive) in the experiment with HOP-92; > 100 µM (inactive) in the experiment on RXF 393; 72.8 µM (inactive) in the experiment on BT-549; > 100 µM (inactive) in the experiment with HT-29; > 100 µM (inactive) in the experiment on PC-3. For the same molecule, the GI50 with OVCAR-3, in the experiment on HCC 2998, in the experiment with UO-31, with UACC-257, in the experiment with U-251 and in the experiment with SK-OV-3 was > 100 µM (inactive) in each case.
As to `COc1cccc(-c2cccc(SC)n2)n1`, the GI50 in the experiment with HL-60 was 12.1 µM (inactive); in the experiment on IGROV-1, 27.2 µM (inactive); in the experiment with CAKI-1, 60 µM (inactive); in the experiment with MCF7, 31.3 µM (inactive); in the experiment on OVCAR-4, 36.2 µM (inactive); with M14 it was 24 µM (inactive). In addition, the GI50 was 34 µM (inactive) with KM12; 19.5 µM (inactive) with HOP-92; 23.4 µM (inactive) in the experiment on RPMI-8226; 18.7 µM (inactive) in the experiment with RXF 393; 31.3 µM (inactive) in the experiment on BT-549; 21.8 µM (inactive) with HT-29. The GI50 with PC-3 was 38.6 µM (inactive); with OVCAR-3, 20.8 µM (inactive); in the experiment with HCC 2998, 23.4 µM (inactive); with UO-31 it was 30.5 µM (inactive); with UACC-257 it was 21 µM (inactive); in the experiment with U-251, 36.7 µM (inactive). The GI50 in the experiment on SK-OV-3 was 56.5 µM (inactive).
`CC1(C)CN(CC(=O)O)CC(Cc2ccc(OCC(=O)O)cc2)N(CC(=O)O)CC(C)(C)SS1` (centres undefined): the GI50 with IGROV-1, in the experiment on CAKI-1, in the experiment on MCF7, with OVCAR-4, in the experiment with M14 and in the experiment with KM12 was > 100 µM (inactive) throughout. Further, the GI50 in the experiment on HOP-92, in the experiment on RPMI-8226, in the experiment with RXF 393, with BT-549, in the experiment with Malme-3M and in the experiment on HT-29 was > 100 µM (inactive) in each case. The GI50 with PC-3, with OVCAR-3, with HCC 2998, with UO-31, in the experiment on UACC-257 and in the experiment on U-251 was > 100 µM (inactive) throughout. Further, in the experiment with SK-OV-3, the GI50 was > 100 µM (inactive).
As to `C/C(=N\NC(=S)NCCCCNC(=S)N/N=C(\C)c1ccccn1)c1ccccc1`, the GI50 is 0.736 µM (active) with IGROV-1; 0.416 µM (active) with MCF7; 1.43 µM (inactive) with OVCAR-4; 1.77 µM (inactive) in the experiment on KM12; 1.55 µM (inactive) in the experiment on HOP-92; 1.35 µM (inactive) with RPMI-8226. The GI50 with RXF 393 is 1.02 µM (active); with BT-549, 0.897 µM (active); in the experiment on Malme-3M, 0.845 µM (active); in the experiment with HT-29 it was 0.531 µM (active); in the experiment with PC-3 it was 3.02 µM (inactive); in the experiment with OVCAR-3 it was 0.424 µM (active). For the same molecule, the GI50 in the experiment on HCC 2998 is 1.66 µM (inactive); with UO-31, 0.635 µM (active); with UACC-257, 1.78 µM (inactive); in the experiment on U-251, 0.962 µM (active); in the experiment on SK-OV-3, 2.27 µM (inactive).
With `Cc1ccc(C(C2C(=O)N(C)C(=O)N(C)C2=O)C(F)(F)C(=O)N(C)C)cc1` (centres undefined), the GI50 in the experiment on CAKI-1, in the experiment on MCF7, with OVCAR-4, in the experiment with M14, in the experiment with KM12 and with HOP-92 was > 100 µM (inactive) throughout. The GI50 in the experiment with RPMI-8226, in the experiment on RXF 393, in the experiment with BT-549, in the experiment on Malme-3M, with PC-3 and in the experiment on OVCAR-3 was > 100 µM (inactive) each time. Also, the GI50 in the experiment with HCC 2998, in the experiment with UO-31, in the experiment with UACC-257, in the experiment with U-251 and in the experiment with SK-OV-3 was > 100 µM (inactive) each time.
Take `COc1cc(C(=O)N(C(=S)OC23CC4CC(CC(C4)C2)C3)c2ccccc2)cc(OC)c1OC`: the GI50 in the experiment with HL-60 is 9.73 µM (inactive); with CAKI-1, 31.3 µM (inactive); in the experiment with MCF7 it was 29.4 µM (inactive); in the experiment with OVCAR-4 it was 29.2 µM (inactive); in the experiment on M14, 18.9 µM (inactive); in the experiment with KM12, 26.5 µM (inactive). Besides, the GI50 in the experiment with HOP-92 was 21 µM (inactive); in the experiment on RXF 393, 32.7 µM (inactive); in the experiment on BT-549, 33 µM (inactive); in the experiment with Malme-3M, 29.1 µM (inactive); in the experiment with HT-29 it was 17.7 µM (inactive); in the experiment on PC-3 it was 22.6 µM (inactive). Besides, the GI50 in the experiment on OVCAR-3 was 28.1 µM (inactive); with HCC 2998 it was 23.4 µM (inactive); in the experiment with UO-31, 19.1 µM (inactive); in the experiment with UACC-257 it was 26.4 µM (inactive); in the experiment with U-251 it was 19 µM (inactive); in the experiment with SK-OV-3, 25.8 µM (inactive).
